We go through eight compounds from patent US12226395B2, “Composition for preventing or treating neurodegenerative diseases, containing diterpene-based compound” (KOREA RESEARCH INSTITUTE OF BIOSCIENCE AND BIOTECHNOLOGY, priority 2017, dated 2025).

What all share (format): cell-based
Assay [1] has as its target T1, Nurr1 (Homo sapiens, UniProt P43354).
T1 construct: 3 types of plasmid DNA, including DNA containing Nurr1-LBD and DNA with β-galactosidase, were transfected into BE(2)C cells; expressed in transfected cells; host or cells: BE(2)C cells
Kind of assay: Nurr1 activity, luciferase reporter analysis in transfected BE(2)C cells. Conditions: for Nurr1 activity (luciferase), multiple of 0.1% DMSO control: BE(2)C cells, 20 hours; for Nurr1 activation (in words): no concentration stated. The text has this:
As in Example 2, Nurr1 activity according to the concentration of the diterpene isolated from the extract of Daphne genkwa was confirmed through luciferase analysis.
Specifically, after synthesizing a vector in which the gene having the nucleotide sequence (5′-CTCGGAGGACAGTACTCCG-3 SEQ ID NO:1) to which the GLA4 gene can bind is repeated 8 times to the reporter gene, luciferase, is synthesized, 3 types of plasmid DNA, including DNA containing Nurr1-LBD and DNA with β-galactosidase, were transfected into BE(2)C cells. After 6 hours, the compounds 1 to 10 separated in Example 2 were treated according to the concentrations in Table 1 below. The cells thus treated were cultured in a 5% carbon dioxide incubator at 37° C. for 20 hours, and then luciferase analysis was performed. As a control, 0.1% DMSO was used, and at this time, the activity was increased by multiple, and Amodiaquine was used as a positive control.
For orientation: A reporter such as luciferase makes a cellular process visible.

The target in assay [2] is T1, Nurr1. The description is as above.
Assay [3] has as its system nitric oxide production in microglia BV-2 cells. Kind of assay: Inhibition of nitric oxide production in LPS-treated microglia BV-2 cells (Griess reagent). From the text: The death of cranial nerve cells due to an inflammatory reaction in a microglia cell has been reported as one of the main causes of degenerative brain diseases such as dementia and Parkinson's disease. (Sarkar S et al., Neurotoxicology, 44, 250-262 (2014); Bower J H et al., Neurology, 67, 494-496 (2006)). Accordingly, the inhibition activity on nitric oxide production, a representative inflammatory factor, was investigated for the compounds isolated from Example 2 in a microglia. Specifically, microglia BV-2 cells were put into a 96-well plate at 5×10^4 cells/well, and cultured for 2 days, followed by incubation with LPS ([…]) for 24 hours with the compound isolated in Example 2 above. The culture supernatant was measured for absorbance at 540 nm using the Griess reagent to quantify nitrite to investigate the amount of nitric oxide production. Minocyline was used as a positive control.
On the technique in general: The Griess reaction detects nitrite, a stable product of nitric oxide.

[4] abbreviates: High concentration = 1 μM (Table 1).
Where [5] appears, read: Low concentration = 0.01 μM (Table 1).
Setting [6] is: Mid concentration = 0.1 μM (Table 1).
The mark [7] stands for this setting: Mus musculus, BV-2 cells, LPS 24 hours, nitrite by Griess reagent, read-out: IC50, inhibition of nitric oxide production (Table 4).
[8] abbreviates: High concentration = 10 μM (Table 1).
Where [9] appears, read: Low concentration = 0.1 μM (Table 1).
The mark [10] stands for this setting: Mid concentration = 1 μM (Table 1).

For orientation: IC50 means the concentration needed to halve the response being measured.

Like-named read-outs stand apart in the source and are kept apart here.

T1 sequence (P43354 360-595 limits assumed): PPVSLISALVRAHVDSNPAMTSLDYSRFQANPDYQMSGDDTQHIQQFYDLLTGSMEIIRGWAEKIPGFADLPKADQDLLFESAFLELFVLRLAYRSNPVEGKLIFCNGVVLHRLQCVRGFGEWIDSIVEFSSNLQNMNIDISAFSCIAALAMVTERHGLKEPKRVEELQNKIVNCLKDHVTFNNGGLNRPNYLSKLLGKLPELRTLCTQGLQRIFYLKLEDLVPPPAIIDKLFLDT

Regarding `C=C(C)[C@@]12O[C@@]3(c4ccccc4)O[C@@H]1C1[C@@H]4O[C@]4(CO)[C@@H](O)[C@]4(O)C(=O)C(C)=CC4[C@@]1(O3)[C@H](C)[C@H]2OC(=O)c1ccccc1` (stereo partly drawn) [Formula 2, (2S,3aR,3cS,4aR,5S,5aS,8bR,9R,10R,10aS)-5,5a-dihydroxy-4a-(hydroxymethyl)-7,9-dimethyl-6-oxo-2-phenyl-10a-(prop-1-en-2-yl)-3a,3b,3c,4a,5,5a,8a,9,10,10a-decahydro-6H-2,8b-epoxyoxireno[2″,3″:6′,7′]azuleno[5′,4′:3,4]benzo[1,2-d][1,3]dioxol-10-yl benzoate], the “Nurr1 activity (luciferase), multiple of 0.1% DMSO control” value (“Nurr1 activity … of 0.1% DMSO control” for short) at Nurr1 [1] (setting [4]) came out at 1.9; at Nurr1 [1] (setting [5]) it was 2.1; on Nurr1 [1] (setting [6]) it was 2.2. Besides, the results for the “Nurr1 activation (in words)” value on Nurr1 [1] and on Nurr1 [2] (0.01 μM) were “better effect of increasing Nurr1 activity” and “excellent effect of Nurr1 activity”, respectively. Besides, in assay [3] (setting [7]), the concentration for half-maximal inhibition (IC50) turned out to be 60 ± 20 nM. Also, the “Inhibition of nitric oxide production (in words)” value in assay [3] (microglia BV-2 cells) is given as “superior inhibition activity on nitric oxide production”.

As to `C=C(C)[C@]12C[C@@H](C)[C@@]34O[C@](c5ccccc5)(O[C@@H]1C3[C@@H]1O[C@]1(COC(=O)c1ccccc1)[C@@H](O)[C@@]1(O)C4C[C@H](C)[C@@H]1O)O2` (stereo partly drawn) [Formula 4, ((2S,3aR,3cS,4aR,5S,5aR,6S,7S,8bR,9R,10aR)-5,5a,6-trihydroxy-7,9-dimethyl-2-phenyl-10a-(prop-1-en-2-yl)dodecahydro-4aH-2,8b-epoxyoxireno[2″,3″:6′,7′]azuleno[5′,4′:3,4]benzo[1,2-d][1,3]dioxol-4a-yl)methyl benzoate], the results for the “Nurr1 activity … of 0.1% DMSO control” value at Nurr1 [1] (setting [8]), on Nurr1 [1] (setting [9]) and on Nurr1 [1] (setting [10]) were 1.7, 1.0 and 1.4, respectively. Further, in assay [3] (Mus musculus, BV-2, 24 h, read-out: IC50, inhibition of nitric oxide production (Table 4)), the IC50 is 180 ± 40 nM.

Take `C=C(C)[C@]1(O)C[C@@H](C)[C@@]2(O)C([C@H]1OC(=O)c1ccccc1)[C@H](O)[C@@](O)(COC(=O)c1ccccc1)[C@@H](O)[C@@]1(O)C2C[C@H](C)[C@@H]1O` (stereo partly drawn) [Formula 5, ((2S,3S,3aR,4S,5S,6S,7R,8R,10R,10aR)-7-(benzoyloxy)-3,3a,4,5,6,8,10a-heptahydroxy-2,10-dimethyl-8-(prop-1-en-2-yl)tetradecahydrobenzo[e]azulen-5-yl)methyl benzoate]: the “Nurr1 activity … of 0.1% DMSO control” value at Nurr1 [1] (setting [8]) was 1.9; on Nurr1 [1] (setting [9]), 0.9; on Nurr1 [1] (setting [10]), 1.2. Further, the IC50 in assay [3] (setting [7]) worked out at 4670 ± 3100 nM.

`C=C(C)[C@@]12O[C@@]3(c4ccccc4)O[C@@H]1C1[C@@H]4O[C@]4(CO)[C@@H](O)[C@]4(O)C(=O)[C@@H](C)CC4[C@@]1(O3)[C@H](C)[C@H]2OC(C)=O` (stereo partly drawn) [Formula 6, (2S,3aR,3cS,4aR,5S,5aS,7S,8bR,9R,10R,10aS)-5,5a-dihydroxy-4a-(hydroxymethyl)-7,9-dimethyl-6-oxo-2-phenyl-10a-(prop-1-en-2-yl)dodecahydro-6H-2,8b-epoxyoxireno[2″,3″:6′,7′]azuleno[5′,4′:3,4]benzo[1,2-d][1,3]dioxol-10-yl acetate]: the “Nurr1 activity … of 0.1% DMSO control” value is on record as 2.4 on Nurr1 [1] (setting [4]), 1.0 at Nurr1 [1] (setting [5]) and 1.8 on Nurr1 [1] (setting [6]). In addition, the IC50 in assay [3] (setting [7]) amounted to 250 ± 60 nM.

As to `C=C(C)[C@]12C[C@@H](C)[C@@]34O[C@](c5ccccc5)(O[C@@H]1C3[C@H](O)[C@@](O)(CO)[C@@H](O)[C@@]1(O)C4C=C(C)[C@@H]1O)O2` (stereo partly drawn) [Formula 7, (2S,3aR,4S,5S,6S,6aR,7S,9bR,10R,11aR)-5-(hydroxymethyl)-8,10-dimethyl-2-phenyl-11a-(prop-1-en-2-yl)-3a,3b,4,5,6,7,9a,10,11,11a-decahydro-6aH-2,9b-epoxyazuleno[5′,4′:3,4]benzo[1,2-d][1,3]dioxole-4,5,6,6a,7-pentaol], the “Nurr1 activity … of 0.1% DMSO control” value is 2.0 at Nurr1 [1] (setting [8]), 1.2 at Nurr1 [1] (setting [9]) and 2.6 at Nurr1 [1] (setting [10]). Further, the half-maximal inhibitory concentration (IC50) in assay [3] (setting [7]) worked out at 3410 ± 990 nM.

With `C=C(C)[C@]12C[C@@H](C)[C@@]34O[C@](c5ccccc5)(O[C@@H]1C3[C@@H]1O[C@]1(CO)[C@@H](O)[C@@]1(O)C4C[C@H](C)[C@@H]1O)O2` (stereo partly drawn) [Formula 8, (2S,3aR,3cS,4aR,5S,5aR,6S,7S,8bR,9R,10aR)-4a-(hydroxymethyl)-7,9-dimethyl-2-phenyl-10a-(prop-1-en-2-yl)dodecahydro-5aH-2,8b-epoxyoxireno[2″,3″:6′,7′]azuleno[5′,4′:3,4]benzo[1,2-d][1,3]dioxole-5,5a,6-triol], the “Nurr1 activity … of 0.1% DMSO control” value on Nurr1 [1] (setting [8]) is given as 1.6; at Nurr1 [1] (setting [9]), 1.7; at Nurr1 [1] (setting [10]) it was 2.0. In addition, the “Nurr1 activation (in words)” value on Nurr1 [1] is “better effect of increasing Nurr1 activity”. Besides, the IC50 in assay [3] (setting [7]) came out at 1220 ± 130 nM.

`C=C(C)[C@]12C[C@@H](C)[C@@]34O[C@](c5ccccc5)(O[C@@H]1C3[C@@H]1O[C@]1(CO)[C@@H](O)[C@]1(O)C(=O)[C@@H](C)CC41)O2` (stereo partly drawn) [Formula 9, (2S,3aR,3cS,4aR,5S,5aS,7S,8bR,9R,10aR)-5,5a-dihydroxy-4a-(hydroxymethyl)-7,9-dimethyl-2-phenyl-10a-(prop-1-en-2-yl)dodecahydro-6H-2,8b-epoxyoxireno[2″,3″:6′,7′]azuleno[5′,4′:3,4]benzo[1,2-d][1,3]dioxol-6-one]: the “Nurr1 activity … of 0.1% DMSO control” value at Nurr1 [1] (setting [8]) came out at 1.5; at Nurr1 [1] (setting [9]), 1.7; at Nurr1 [1] (setting [10]) it was 2.4. Besides, the IC50 in assay [3] (setting [7]) worked out at 1600 ± 370 nM.

In the case of `C=C(C)[C@@]12O[C@@]3(/C=C/C=C/CCCCC)O[C@@H]1[C@@H]1[C@@H]4O[C@]4(CO)[C@@H](O)[C@]4(O)C(=O)C(C)=C[C@H]4[C@@]1(O3)[C@H](C)[C@H]2OC(C)=O` [compound 13, yuanhuadine], the results for the “Nurr1 activation (in words)” value on Nurr1 [1], on Nurr1 [2] (0.003 μM) and at Nurr1 [2] (0.03 μM) were “better effect of increasing Nurr1 activity”, “activated Nurr1” and “significantly activates Nurr1”, respectively. Moreover, the “Nurr1 activity (Table 3), relative to control treatment” value on Nurr1 [2] (0.003 μM) is reported as 1.23 ± 0.09; on Nurr1 [2] (0.01 μM), 1.35 ± 0.28; on Nurr1 [2] (0.03 μM), “*1.47 ± 0.17”; at Nurr1 [2] (0.1 μM), “*1.42 ± 0.14”; on Nurr1 [2] (0.3 μM) it was “*1.65 ± 0.2”; at Nurr1 [2] (1 μM) it was “**1.47 ± 0.02”. The IC50 in assay [3] (BV-2 cells, LPS 24 hours, nitrite by Griess reagent, read-out: IC50, inhibition of nitric oxide production (Table 5)) stood at 1800 nM.
